Measured values reported in patent US12187723B2 (BRISTOL-MYERS SQUIBB COMPANY, priority 2019, dated 2025).

Experiments:
[1] = molecular target: T1, human TLR8 (Homo sapiens, UniProt Q9NR97); test: TLR8 inhibition reporter assay (HEK-Blue SEAP); type: cell-based; details: HEK-Blue cells overexpressing human TLR8, R848 15.9 μM, 22 hour incubation
T1 construct: host or cells: HEK-Blue cells
T1 sequence (Q9NR97 27-1041): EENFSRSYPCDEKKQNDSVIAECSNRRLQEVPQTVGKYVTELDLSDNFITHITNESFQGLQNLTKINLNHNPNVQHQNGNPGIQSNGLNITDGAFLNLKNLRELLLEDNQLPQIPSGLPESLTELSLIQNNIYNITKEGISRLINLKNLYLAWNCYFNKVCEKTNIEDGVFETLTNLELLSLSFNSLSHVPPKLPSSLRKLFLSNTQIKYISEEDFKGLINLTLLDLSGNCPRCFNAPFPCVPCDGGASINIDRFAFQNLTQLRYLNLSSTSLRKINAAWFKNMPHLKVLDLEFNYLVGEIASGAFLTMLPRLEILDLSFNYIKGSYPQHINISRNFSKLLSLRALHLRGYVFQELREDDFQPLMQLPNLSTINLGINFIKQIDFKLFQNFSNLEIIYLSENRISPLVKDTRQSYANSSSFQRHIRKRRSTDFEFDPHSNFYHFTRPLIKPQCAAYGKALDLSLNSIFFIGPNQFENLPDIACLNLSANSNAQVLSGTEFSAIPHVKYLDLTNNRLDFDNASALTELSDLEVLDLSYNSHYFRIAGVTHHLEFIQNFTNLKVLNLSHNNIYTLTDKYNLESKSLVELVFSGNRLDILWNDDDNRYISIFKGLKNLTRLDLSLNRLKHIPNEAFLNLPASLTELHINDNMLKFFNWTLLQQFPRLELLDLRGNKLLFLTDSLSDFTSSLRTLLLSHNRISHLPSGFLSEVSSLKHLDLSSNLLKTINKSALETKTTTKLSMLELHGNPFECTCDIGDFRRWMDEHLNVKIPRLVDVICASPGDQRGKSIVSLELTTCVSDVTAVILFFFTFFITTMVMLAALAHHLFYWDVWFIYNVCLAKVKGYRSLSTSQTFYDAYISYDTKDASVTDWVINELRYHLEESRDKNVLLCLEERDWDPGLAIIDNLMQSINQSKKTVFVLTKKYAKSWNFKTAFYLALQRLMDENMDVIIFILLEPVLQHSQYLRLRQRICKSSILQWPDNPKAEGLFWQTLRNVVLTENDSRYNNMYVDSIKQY
Outline: (§1)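 Dose–response from 0.05 nM to 50 μM was run in HEK-Blue human TLR7, TLR8 and TLR9 reporter cells. After 30 min at room temperature with compound, ligand was added (TLR7 gardiquimod 7.5 μM; TLR8 R848 15.9 μM; TLR9 ODN2006 5 nM) and SEAP measured next day, at 22 h.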

[2] = molecular target: T2, human TLR9 (Homo sapiens, UniProt Q9NR96); test: TLR9 inhibition reporter assay (HEK-Blue SEAP); type: cell-based; details: HEK-Blue cells overexpressing human TLR9, ODN2006 5 nM, 22 hour incubation
T2 construct: host or cells: HEK-Blue cells
T2 sequence (Q9NR96 26-1032): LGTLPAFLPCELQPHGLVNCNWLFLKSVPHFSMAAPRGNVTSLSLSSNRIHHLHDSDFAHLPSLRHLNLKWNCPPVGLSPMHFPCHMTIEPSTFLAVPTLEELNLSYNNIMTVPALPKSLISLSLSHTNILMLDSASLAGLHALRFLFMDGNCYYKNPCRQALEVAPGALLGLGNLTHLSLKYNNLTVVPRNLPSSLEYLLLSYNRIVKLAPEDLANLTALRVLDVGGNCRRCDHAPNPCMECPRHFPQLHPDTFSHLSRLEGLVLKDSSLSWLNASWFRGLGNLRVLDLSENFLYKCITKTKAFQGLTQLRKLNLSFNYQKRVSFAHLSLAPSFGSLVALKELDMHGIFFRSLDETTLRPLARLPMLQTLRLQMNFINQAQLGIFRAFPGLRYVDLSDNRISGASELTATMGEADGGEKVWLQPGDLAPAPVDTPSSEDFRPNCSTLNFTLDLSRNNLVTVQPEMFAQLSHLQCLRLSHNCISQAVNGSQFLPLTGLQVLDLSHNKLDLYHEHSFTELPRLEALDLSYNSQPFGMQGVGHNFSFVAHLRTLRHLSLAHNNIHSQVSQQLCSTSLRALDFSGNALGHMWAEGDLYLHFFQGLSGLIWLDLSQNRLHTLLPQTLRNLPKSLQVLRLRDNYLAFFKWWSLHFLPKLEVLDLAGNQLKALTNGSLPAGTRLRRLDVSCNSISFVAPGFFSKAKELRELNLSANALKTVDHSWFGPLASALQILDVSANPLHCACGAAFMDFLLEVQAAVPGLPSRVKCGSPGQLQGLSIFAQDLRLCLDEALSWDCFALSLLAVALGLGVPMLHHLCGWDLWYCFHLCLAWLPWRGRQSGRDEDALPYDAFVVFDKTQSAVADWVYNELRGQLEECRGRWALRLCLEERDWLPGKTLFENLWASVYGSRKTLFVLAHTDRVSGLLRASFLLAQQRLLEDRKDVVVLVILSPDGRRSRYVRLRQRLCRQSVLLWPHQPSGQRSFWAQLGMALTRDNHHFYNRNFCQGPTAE
Outline: as §1

| Compound | IC50 [1] [µM] | IC50 [2] [µM] |
| --- | --- | --- |
| COc1cc(-c2cc3[nH]c(=O)n(C4CCC(N5CCC(S(C)(=O)=O)C5)CC4)c3cc2C(C)C)cn2ncnc12 (single isomer, unassigned) [Example 289, 6-isopropyl-5-(8-methoxy-[1,2,4]triazolo[1,5-a]pyridin-6-yl)-1-(4-(3-(methylsulfonyl)pyrrolidin-1-yl)cyclohexyl)-1,3-dihydro-2H-benzo[d]imidazol-2-one] | 0.00444 | > 50 |
| COc1cc(-c2cc3[nH]c(=O)n(C4CCC(N5CCC(S(C)(=O)=O)C5)CC4)c3cc2C(C)C)cn2ncnc12 (single isomer, unassigned) [Example 288, 6-isopropyl-5-(8-methoxy-[1,2,4]triazolo[1,5-a]pyridin-6-yl)-1-(4-(3-(methylsulfonyl)pyrrolidin-1-yl)cyclohexyl)-1,3-dihydro-2H-benzo[d]imidazol-2-one] | 0.00075 | 47.8 |
| CCN[C@H]1CC[C@H](n2c(=O)[nH]c3cc(-c4cc(C)c5ncnn5c4)c(C)cc32)CC1 [Example 24, 1-((1r,4s)-4-(ethylamino)cyclohexyl)-6-methyl-5-(8-methyl-[1,2,4]triazolo[1,5-a]pyridin-6-yl)-1,3-dihydro-2H-benzo[d]imidazol-2-one] | 0.00674 | 1.58 |
| COc1cc(-c2cc3[nH]c(=O)n([C@@H]4CCCNC4)c3cc2C)cn2ncnc12 [1 EH, (R)-5-(8-methoxy-[1,2,4]triazolo[1,5-a]pyridin-6-yl)-6-methyl-1-(piperidin-3-yl)-1,3-dihydro-2H-benzo[d]imidazol-2-one] | 0.0496 | 0.809 |
| Cc1cc2c(cc1-c1cc(C)c3ncnn3c1)[nH]c(=O)n2[C@H]1CC[C@@H](NCCC(F)(F)F)CC1 [Example 31] | 0.00132 | 2.96 |
| Cc1cc2c(cc1-c1cc(C)c3ncnn3c1)[nH]c(=O)n2C1CCCNC1 (stereo not drawn) [1 EC, 6-methyl-5-(8-methyl-[1,2,4]triazolo[1,5-a]pyridin-6-yl)-1-(piperidin-3-yl)-1,3-dihydro-2H-benzo[d]imidazol-2-one] | 0.0225 | 0.381 |
| COc1cc(-c2cc3[nH]c(=O)n(C4CCC(N5CC6(COC6)C5)CC4)c3cc2C(C)C)cn2ncnc12 (stereo not drawn) [Example 254, 1-(4-(2-oxa-6-azaspiro[3.3]heptan-6-yl)cyclohexyl)-6-isopropyl-5-(8-methoxy-[1,2,4]triazolo[1,5-a]pyridin-6-yl)-1,3-dihydro-2H-benzo[d]imidazol-2-one] | 0.00338 | 14.1 |
| COc1c(C)c(-c2cc3[nH]c(=O)n(C4CCC(N5CCCOCC5)CC4)c3cc2C(C)C)cn2ncnc12 (single isomer, unassigned) [Example 261, 1-(4-(1,4-oxazepan-4-yl)cyclohexyl)-6-isopropyl-5-(8-methoxy-7-methyl-[1,2,4]triazolo[1,5-a]pyridin-6-yl)-1,3-dihydro-2H-benzo[d]imidazol-2-one] | 0.00223 | 18.7 |
| Cc1c(-c2cc3[nH]c(=O)n([C@@H]4CCCNC4)c3cc2C(C)C)cn2ncnc2c1C [119 FC, (R)-5-(7,8-dimethyl-[1,2,4]triazolo[1,5-a]pyridin-6-yl)-6-isopropyl-1-(piperidin-3-yl)-1,3-dihydro-2H-benzo[d]imidazol-2-one] | 0.00717 | 11.7 |
| Cc1c(-c2cc3[nH]c(=O)n(C4CCC(N5CCCC(F)C5)CC4)c3cc2C(C)C)cn2ncnc2c1C (stereo not drawn) [Example 274, 5-(7,8-dimethyl-[1,2,4]triazolo[1,5-a]pyridin-6-yl)-1-(4-(3-fluoropiperidin-1-yl)cyclohexyl)-6-isopropyl-1,3-dihydro-2H-benzo[d]imidazol-2-one] | 0.00109 | 16.8 |
| COc1cc(-c2cc3[nH]c(=O)n(C4CCC(N5CC[C@H](F)C5)CC4)c3cc2C(C)C)cn2ncnc12 (stereo partly drawn) [Example 286, (S)-1-(4-(3-fluoropyrrolidin-1-yl)cyclohexyl)-6-isopropyl-5-(8-methoxy-[1,2,4]triazolo[1,5-a]pyridin-6-yl)-1,3-dihydro-2H-benzo[d]imidazol-2-one] | 0.0009 | 4.28 |
| Cc1c(-c2cc3[nH]c(=O)n(C4CCC(N5CCC(F)(F)CC5)CC4)c3cc2C(C)C)cn2ncnc2c1C (single isomer, unassigned) [Example 276, 1-(4-(4,4-difluoropiperidin-1-yl)cyclohexyl)-5-(7,8-dimethyl-[1,2,4]triazolo[1,5-a]pyridin-6-yl)-6-isopropyl-1,3-dihydro-2H-benzo[d]imidazol-2-one] | 0.00192 | 15.3 |
| Cc1c(-c2cc3[nH]c(=O)n(C4CCC(N5CCCOCC5)CC4)c3cc2C(C)C)cn2ncnc2c1C (stereo not drawn) [Example 272, 1-(4-(1,4-oxazepan-4-yl)cyclohexyl)-5-(7,8-dimethyl-[1,2,4]triazolo[1,5-a]pyridin-6-yl)-6-isopropyl-1,3-dihydro-2H-benzo[d]imidazol-2-one] | 0.00049 | 6.75 |
| Cc1cc(-c2cc(C)c3ncnn3c2)cc2[nH]c(=O)n(C3CCNCC3)c12 [106 F, 7-methyl-5-(8-methyl-[1,2,4]triazolo[1,5-a]pyridin-6-yl)-1-(piperidin-4-yl)-1,3-dihydro-2H-benzo[d]imidazol-2-one] | 0.433 | 1.02 |
| Cc1cc2c(cc1-c1cc(C)c3ncnn3c1)[nH]c(=O)n2[C@@H]1CCCN(CC(C)(C)C)C1 [Example 26, (R)-6-methyl-5-(8-methyl-[1,2,4]triazolo[1,5-a]pyridin-6-yl)-1-(1-neopentylpiperidin-3-yl)-1,3-dihydro-2H-benzo[d]imidazol-2-one] | 0.384 | 6.72 |
| Cc1cc2c(cc1-c1cc(C)c3ncnn3c1)[nH]c(=O)n2C1CCNCC1 [1 EA, 6-methyl-5-(8-methyl-[1,2,4]triazolo[1,5-a]pyridin-6-yl)-1-(piperidin-4-yl)-1,3-dihydro-2H-benzo[d]imidazol-2-one] | 0.439 | 5.45 |
| Cc1c(-c2cc3[nH]c(=O)n(C4CCC(N5CCC6(CC5)COC6)CC4)c3cc2C(C)C)cn2ncnc2c1C (single isomer, unassigned) [Example 282, 1-(4-(2-oxa-7-azaspiro[3.5]nonan-7-yl)cyclohexyl)-5-(7,8-dimethyl-[1,2,4]triazolo[1,5-a]pyridin-6-yl)-6-isopropyl-1,3-dihydro-2H-benzo[d]imidazol-2-one] | 0.00051 | 14.4 |
| Cc1cc2c(cc1-c1cc(C)c3ncnn3c1)[nH]c(=O)n2[C@@H]1CCCN(CCC(F)(F)F)C1 [Example 29, (R)-6-methyl-5-(8-methyl-[1,2,4]triazolo[1,5-a]pyridin-6-yl)-1-(1-(3,3,3-trifluoropropyl)piperidin-3-yl)-1,3-dihydro-2H-benzo[d]imidazol-2-one] | 0.0495 | > 50 |
